Experimental data taken from patent US20240101573A1, “MACROCYCLIC K-RAS G12C INHIBITOR, PREPARATION METHOD THEREFOR AND USE THEREOF” (Abbisko Therapeutics Co., Ltd., priority 2020, published 2024).

Legend:
H358 = test: Anti-proliferation 2D CTG test (H358); type: cell-based; conditions: H358 cells, 1500 cells/well, 5 days incubation with compound, CTG readout
Method in brief: (§1)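 H358 (1500 cells/well) and MIA PaCa-2 (500 cells/well) seeded overnight, then treated 5 days at 37 °C with 10-point 1:3 dilutions, top final […], 0.5% DMSO. Viability by CellTiter-Glo luminescence; IC50 from four-parameter fit normalized to plate controls.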

MIA PaCa-2 = test: Anti-proliferation 2D CTG test (MIA PaCa-2); type: cell-based; conditions: MIAPACA-2 cells, 500 cells/well, 5 days incubation with compound, CTG readout
Method in brief: as §1

| Structure (SMILES) | IC50 (H358) | IC50 (MIA PaCa-2) | IC50 (H358; Homo sapiens, NCI-H358, 120 h) | IC50 (MIA PaCa-2; Homo sapiens, MIA PaCa-2, 120 h) |
| --- | --- | --- | --- | --- |
| C=CC(=O)N1C[C@H](C)N(c2nc(=O)n3c4nc(c(F)cc24)-c2c(ccc(Cl)c2F)OCC(OCC)C(O)c2ccnc(C(C)C)c2-3)C[C@H]1C (stereo partly drawn) [Example 71, 2^4-((2S,5R)-4-acryloyl-2,5-dimethylpiperazin-1-yl)-3^5-chloro-6-ethoxy-2^6,3^6-difluoro-7-hydroxy-1^2-isopropyl-2^1,2^2-dihydro-4-oxa-2(1,7)-pyrido[2,3-d]pyrimidina-1(3,4)-pyridina-3(1,2)-benzocycloheptane-2^2-one] | 8 nM | 3 nM |  |  |
| C=CC(=O)N1CCN(c2nc(=O)n3c4nc(c(F)cc24)-c2c(ccc(Cl)c2F)OCC(O)C(OCC)c2ccnc(C(C)C)c2-3)[C@@H](C)C1 (stereo partly drawn) [Example 72, (R)-2^4-((S)-4-acryloyl-2-methylpiperazin-1-yl)-3^5-chloro-7-ethoxy-2^6,3^6-difluoro-6-hydroxy-1^2-isopropyl-2^1,2^2-dihydro-4-oxa-2(1,7)-pyrido[2,3-d]pyrimidina-1(3,4)-pyridina-3(1,2)-benzocycloheptane-2^2-one] | 7 nM | 6 nM |  |  |
| C=CC(=O)N1CCN(c2nc(=O)n3c4nc(c(F)cc24)-c2c(ccc(Cl)c2F)OCC(OCC)C(O)c2ccnc(C(C)C)c2-3)[C@@H](C)C1 (stereo partly drawn) [Example 75, (R)-2^4-((S)-4-acryloyl-2-methylpiperazin-1-yl)-3^5-chloro-6-ethoxy-2^6,3^6-difluoro-7-hydroxy-1^2-isopropyl-2^1,2^2-dihydro-4-oxa-2(1,7)-pyrido[2,3-d]pyrimidina-1(3,4)-pyridina-3(1,2)-benzocycloheptane-2^2-one] | 3 nM | 6 nM |  |  |
| C=CC(=O)N1C[C@H](C)N(c2nc(=O)n3c4nc(c(F)cc24)-c2c(ccc(Cl)c2F)OCC(O)C(OCC)c2ccnc(C(C)C)c2-3)C[C@H]1C (stereo partly drawn) [Example 76, (R)-2^4-((2S,5R)-4-acryloyl-2,5-dimethylpiperazin-1-yl)-3^5-chloro-7-ethoxy-2^6,3^6-difluoro-6-hydroxy-1^2-isopropyl-2^1,2^2-dihydro-4-oxa-2(1,7)-pyrido[2,3-d]pyrimidina-1(3,4)-pyridina-3(1,2)-benzocycloheptane-2^2-one] | 4 nM | 4 nM |  |  |
| C=CC(=O)N1C[C@H](C)N(c2nc(=O)n3c4nc(c(F)cc24)-c2c(ccc(Cl)c2F)OCC(OCC)C(O)c2ccnc(C(C)C)c2-3)C[C@H]1C (stereo partly drawn) [Example 78, (R)-2^4-((2S,5R)-4-acryloyl-2,5-dimethylpiperazin-1-yl)-3^5-chloro-6-ethoxy-2^6,3^6-difluoro-7-hydroxy-1^2-isopropyl-2^1,2^2-dihydro-4-oxa-2(1,7)-pyrido[2,3-d]pyrimidina-1(3,4)-pyridina-3(1,2)-benzocycloheptane-2^2-one] | 5 nM | 3 nM |  |  |
| C=CC(=O)N1CCN(c2nc(=O)n3c4nc(c(F)cc24)-c2c(F)cccc2OCCCc2ccnc(C(C)C)c2-3)[C@@H](C)C1 [Positive compound, reference compound] |  |  | 8 nM | 11 nM |
